Reference: ChEMBL document CHEMBL5291721, “A preclinical secondary pharmacology resource illuminates target-adverse drug reaction associations of marketed drugs” (Nat Commun, 2023)

Legend:
Estrogen receptor [1] = target: T1, Estrogen receptor (Homo sapiens, UniProt P03372); assay type: functional
T1 sequence (P03372 whole entry): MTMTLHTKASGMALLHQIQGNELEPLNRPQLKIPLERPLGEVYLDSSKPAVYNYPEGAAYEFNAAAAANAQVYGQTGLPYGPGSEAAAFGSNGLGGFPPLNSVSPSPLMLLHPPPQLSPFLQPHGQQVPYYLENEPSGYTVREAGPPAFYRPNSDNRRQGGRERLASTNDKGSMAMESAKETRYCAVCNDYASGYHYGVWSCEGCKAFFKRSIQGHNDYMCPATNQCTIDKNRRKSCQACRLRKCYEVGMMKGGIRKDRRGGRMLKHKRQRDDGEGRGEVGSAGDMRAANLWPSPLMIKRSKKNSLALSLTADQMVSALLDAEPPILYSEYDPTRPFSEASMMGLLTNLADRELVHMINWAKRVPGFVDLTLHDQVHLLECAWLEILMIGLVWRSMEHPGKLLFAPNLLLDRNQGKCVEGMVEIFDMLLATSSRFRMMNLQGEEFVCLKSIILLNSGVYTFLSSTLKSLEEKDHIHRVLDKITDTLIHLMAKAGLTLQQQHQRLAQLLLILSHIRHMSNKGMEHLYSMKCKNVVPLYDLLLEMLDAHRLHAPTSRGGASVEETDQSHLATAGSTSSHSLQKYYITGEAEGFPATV

[2] = target: Vascular endothelial growth factor receptor 2 (Homo sapiens, UniProt P35968); assay type: functional
Vascular endothelial growth factor receptor 2, sequence (P35968 whole entry): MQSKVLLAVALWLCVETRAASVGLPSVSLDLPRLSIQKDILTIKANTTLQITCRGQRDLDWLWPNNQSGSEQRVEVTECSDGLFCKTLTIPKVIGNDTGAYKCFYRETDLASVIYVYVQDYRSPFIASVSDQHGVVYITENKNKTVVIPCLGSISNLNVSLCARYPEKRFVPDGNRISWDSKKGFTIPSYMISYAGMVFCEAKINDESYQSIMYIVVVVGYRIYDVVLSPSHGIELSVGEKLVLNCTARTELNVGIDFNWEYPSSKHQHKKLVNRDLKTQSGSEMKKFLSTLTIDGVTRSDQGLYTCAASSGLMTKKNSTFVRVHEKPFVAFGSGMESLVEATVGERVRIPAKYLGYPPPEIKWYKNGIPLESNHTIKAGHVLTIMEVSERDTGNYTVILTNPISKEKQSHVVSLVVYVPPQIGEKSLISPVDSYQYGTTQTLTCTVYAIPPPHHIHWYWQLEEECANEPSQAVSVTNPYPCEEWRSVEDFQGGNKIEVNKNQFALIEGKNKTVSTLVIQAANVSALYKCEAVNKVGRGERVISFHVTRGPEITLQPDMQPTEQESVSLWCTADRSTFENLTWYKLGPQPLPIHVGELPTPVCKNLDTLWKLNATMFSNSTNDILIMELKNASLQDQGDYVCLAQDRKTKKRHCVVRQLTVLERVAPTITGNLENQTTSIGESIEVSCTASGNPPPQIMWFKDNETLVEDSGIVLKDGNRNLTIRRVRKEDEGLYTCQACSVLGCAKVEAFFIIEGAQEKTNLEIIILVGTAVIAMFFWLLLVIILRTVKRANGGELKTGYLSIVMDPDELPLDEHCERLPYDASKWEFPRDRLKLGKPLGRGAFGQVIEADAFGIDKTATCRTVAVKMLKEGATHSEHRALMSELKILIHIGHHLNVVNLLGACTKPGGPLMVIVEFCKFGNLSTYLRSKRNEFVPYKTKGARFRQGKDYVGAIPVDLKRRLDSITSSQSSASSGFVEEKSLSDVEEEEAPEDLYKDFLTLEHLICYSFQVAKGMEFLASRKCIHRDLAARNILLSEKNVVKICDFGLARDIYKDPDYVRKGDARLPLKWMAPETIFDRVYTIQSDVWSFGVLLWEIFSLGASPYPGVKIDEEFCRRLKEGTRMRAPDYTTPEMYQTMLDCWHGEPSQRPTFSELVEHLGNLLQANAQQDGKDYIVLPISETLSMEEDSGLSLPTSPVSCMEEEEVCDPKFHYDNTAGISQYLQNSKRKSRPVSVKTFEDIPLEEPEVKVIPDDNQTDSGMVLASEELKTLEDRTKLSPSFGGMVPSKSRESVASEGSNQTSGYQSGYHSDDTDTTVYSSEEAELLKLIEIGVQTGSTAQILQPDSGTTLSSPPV

[3] = target: Receptor tyrosine-protein kinase erbB-2 (Homo sapiens, UniProt P04626); assay type: functional
Receptor tyrosine-protein kinase erbB-2, sequence (P04626 whole entry): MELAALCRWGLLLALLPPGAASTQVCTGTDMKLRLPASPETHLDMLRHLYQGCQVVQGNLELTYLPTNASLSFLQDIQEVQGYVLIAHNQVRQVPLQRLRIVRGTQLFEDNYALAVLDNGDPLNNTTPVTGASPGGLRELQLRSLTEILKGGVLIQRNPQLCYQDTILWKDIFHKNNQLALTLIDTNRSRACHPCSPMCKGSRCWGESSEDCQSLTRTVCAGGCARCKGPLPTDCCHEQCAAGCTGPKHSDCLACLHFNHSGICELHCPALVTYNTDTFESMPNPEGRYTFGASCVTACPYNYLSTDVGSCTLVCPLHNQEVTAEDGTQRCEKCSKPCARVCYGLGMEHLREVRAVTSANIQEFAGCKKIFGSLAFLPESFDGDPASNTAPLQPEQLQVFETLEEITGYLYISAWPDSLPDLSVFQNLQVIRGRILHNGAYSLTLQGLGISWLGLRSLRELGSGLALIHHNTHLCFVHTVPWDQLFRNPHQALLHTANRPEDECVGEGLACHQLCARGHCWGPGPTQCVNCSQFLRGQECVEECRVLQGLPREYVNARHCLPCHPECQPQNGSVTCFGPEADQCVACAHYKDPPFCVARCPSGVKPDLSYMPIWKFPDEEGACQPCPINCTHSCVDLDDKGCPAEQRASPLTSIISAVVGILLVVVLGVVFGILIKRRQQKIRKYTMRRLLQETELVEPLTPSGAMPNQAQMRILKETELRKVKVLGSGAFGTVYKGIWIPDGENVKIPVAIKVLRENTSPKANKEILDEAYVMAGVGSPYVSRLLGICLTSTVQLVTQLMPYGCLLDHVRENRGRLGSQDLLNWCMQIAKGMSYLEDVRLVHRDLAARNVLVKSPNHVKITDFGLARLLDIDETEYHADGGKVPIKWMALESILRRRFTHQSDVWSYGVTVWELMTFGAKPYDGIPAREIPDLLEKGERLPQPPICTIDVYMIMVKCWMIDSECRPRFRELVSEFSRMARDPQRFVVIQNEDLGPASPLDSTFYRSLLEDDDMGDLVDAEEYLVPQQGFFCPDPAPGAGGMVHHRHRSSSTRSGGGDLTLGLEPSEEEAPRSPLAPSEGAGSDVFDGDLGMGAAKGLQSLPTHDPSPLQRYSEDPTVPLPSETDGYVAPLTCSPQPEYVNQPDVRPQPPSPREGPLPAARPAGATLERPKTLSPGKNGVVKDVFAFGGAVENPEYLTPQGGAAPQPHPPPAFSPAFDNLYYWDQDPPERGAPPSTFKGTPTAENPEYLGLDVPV

Glucocorticoid receptor = target: T2, Glucocorticoid receptor (Homo sapiens, UniProt P04150); assay type: functional
T2 sequence (P04150 whole entry): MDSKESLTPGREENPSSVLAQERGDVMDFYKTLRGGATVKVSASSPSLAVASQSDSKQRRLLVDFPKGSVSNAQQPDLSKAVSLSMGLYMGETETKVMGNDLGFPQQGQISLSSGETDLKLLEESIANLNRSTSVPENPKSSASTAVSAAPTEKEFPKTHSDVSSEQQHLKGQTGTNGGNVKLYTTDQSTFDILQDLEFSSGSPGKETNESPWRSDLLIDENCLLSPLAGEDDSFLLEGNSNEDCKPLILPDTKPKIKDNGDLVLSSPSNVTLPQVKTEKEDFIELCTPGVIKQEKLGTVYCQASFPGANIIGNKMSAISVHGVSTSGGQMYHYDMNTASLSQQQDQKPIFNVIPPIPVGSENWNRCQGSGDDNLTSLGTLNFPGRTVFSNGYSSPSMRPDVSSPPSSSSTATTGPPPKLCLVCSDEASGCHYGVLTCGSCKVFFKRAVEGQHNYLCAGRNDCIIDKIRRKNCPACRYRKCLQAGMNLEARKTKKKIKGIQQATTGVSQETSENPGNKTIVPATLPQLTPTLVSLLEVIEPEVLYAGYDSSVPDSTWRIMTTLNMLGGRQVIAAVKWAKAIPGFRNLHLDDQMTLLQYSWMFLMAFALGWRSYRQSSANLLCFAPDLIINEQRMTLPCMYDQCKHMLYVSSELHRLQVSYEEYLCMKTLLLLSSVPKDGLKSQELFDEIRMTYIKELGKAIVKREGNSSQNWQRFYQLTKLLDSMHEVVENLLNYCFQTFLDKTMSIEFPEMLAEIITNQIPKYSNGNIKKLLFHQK

[4] = target: T3, Corticotropin-releasing factor receptor 2 (Homo sapiens, UniProt Q13324)
T3 sequence (Q13324 whole entry): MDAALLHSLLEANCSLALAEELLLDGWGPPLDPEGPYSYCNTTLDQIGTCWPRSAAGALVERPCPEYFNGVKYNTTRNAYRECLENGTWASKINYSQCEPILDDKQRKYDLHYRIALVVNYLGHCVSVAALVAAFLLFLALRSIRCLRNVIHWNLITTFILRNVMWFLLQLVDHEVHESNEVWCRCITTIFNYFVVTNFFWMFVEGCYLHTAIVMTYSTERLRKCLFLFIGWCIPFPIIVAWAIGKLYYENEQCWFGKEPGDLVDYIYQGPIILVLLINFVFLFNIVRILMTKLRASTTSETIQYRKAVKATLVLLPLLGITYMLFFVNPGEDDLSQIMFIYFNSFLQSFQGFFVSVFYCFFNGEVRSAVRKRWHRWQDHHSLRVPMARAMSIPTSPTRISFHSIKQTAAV

Estrogen receptor [5] = target: T1, Estrogen receptor
[6] = target: T4, Gastric inhibitory polypeptide receptor (Homo sapiens, UniProt P48546)
T4 sequence (P48546 whole entry): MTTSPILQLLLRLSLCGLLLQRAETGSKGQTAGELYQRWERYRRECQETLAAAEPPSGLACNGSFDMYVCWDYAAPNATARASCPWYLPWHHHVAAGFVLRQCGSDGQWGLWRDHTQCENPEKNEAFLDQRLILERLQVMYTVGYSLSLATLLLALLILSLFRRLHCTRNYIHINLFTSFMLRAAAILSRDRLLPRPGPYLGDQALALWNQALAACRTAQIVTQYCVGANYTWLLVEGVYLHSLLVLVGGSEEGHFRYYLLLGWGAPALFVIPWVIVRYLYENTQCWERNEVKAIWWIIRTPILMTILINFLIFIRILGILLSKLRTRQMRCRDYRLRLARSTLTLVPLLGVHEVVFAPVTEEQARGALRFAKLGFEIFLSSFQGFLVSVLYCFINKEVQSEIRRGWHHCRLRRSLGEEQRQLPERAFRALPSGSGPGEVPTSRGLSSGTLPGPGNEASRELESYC

Histamine H2 receptor = Histamine H2 receptor (Homo sapiens, UniProt P25021)
Histamine H2 receptor, sequence (P25021 whole entry): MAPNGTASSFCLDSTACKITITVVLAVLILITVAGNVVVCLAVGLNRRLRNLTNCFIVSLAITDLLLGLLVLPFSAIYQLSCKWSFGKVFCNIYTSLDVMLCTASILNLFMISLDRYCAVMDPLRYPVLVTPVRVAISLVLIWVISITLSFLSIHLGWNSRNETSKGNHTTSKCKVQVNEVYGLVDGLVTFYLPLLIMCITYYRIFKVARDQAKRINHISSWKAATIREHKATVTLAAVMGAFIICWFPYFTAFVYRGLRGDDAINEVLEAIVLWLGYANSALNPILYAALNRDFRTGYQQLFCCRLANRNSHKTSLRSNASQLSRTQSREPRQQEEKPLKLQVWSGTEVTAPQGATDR

[7] = target: Neurotensin receptor type 1 (Homo sapiens, UniProt P30989)
Neurotensin receptor type 1, sequence (P30989 whole entry): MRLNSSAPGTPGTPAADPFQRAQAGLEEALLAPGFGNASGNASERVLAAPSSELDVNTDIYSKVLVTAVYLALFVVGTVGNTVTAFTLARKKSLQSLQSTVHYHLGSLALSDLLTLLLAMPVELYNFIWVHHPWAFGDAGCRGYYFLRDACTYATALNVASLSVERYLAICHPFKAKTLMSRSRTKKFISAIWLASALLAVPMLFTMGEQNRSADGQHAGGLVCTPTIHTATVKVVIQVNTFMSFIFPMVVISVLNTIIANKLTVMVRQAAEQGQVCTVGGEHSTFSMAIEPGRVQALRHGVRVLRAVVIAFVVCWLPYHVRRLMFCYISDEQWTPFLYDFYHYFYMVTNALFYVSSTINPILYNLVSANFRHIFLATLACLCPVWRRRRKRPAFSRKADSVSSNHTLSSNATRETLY

[8] = target: Gamma-aminobutyric acid receptor subunit alpha-1/alpha-2/beta-2/gamma-2 (Homo sapiens, UniProt P14867+P18507+P47869+P47870); assay type: protein-complex assay
Note: assay procedure not described here.

Row | Structure (SMILES) | AC50 (Estrogen receptor [1]) [µM] | AC50 [2] [µM] | AC50 [3] [µM] | AC50 (Glucocorticoid receptor) [µM] | AC50 [4] [µM] | AC50 (Estrogen receptor [5]) [µM] | AC50 [6] [µM] | AC50 (Histamine H2 receptor) [µM] | AC50 [7] [µM] | AC50 [8] [µM]
1 | C1CCC(C(CC2CCCCN2)C2CCCCC2)CC1 (stereo not drawn) [PERHEXILINE] | > 30 | > 30 | > 30 | > 30 |  |  |  |  |  | 
2 | CNC1Cc2ccccc2N(C)c2ccccc21 (stereo not drawn) [METAPRAMINE] | > 30 | > 30 | > 30 | > 30 |  |  |  |  |  | 
3 | Cn1nnc2c(C(N)=O)ncn2c1=O [TEMOZOLOMIDE] | > 30 | > 30 | > 30 |  | > 30 | > 30 | > 30 | > 10 | > 30 | 
4 | NCC(CC(=O)O)c1ccc(Cl)cc1 (stereo not drawn) [BACLOFEN] |  | > 30 | > 30 | > 30 | > 30 |  | > 30 | > 10 | > 30 | > 30
5 | c1ccc([C@H]2CN3CCSC3=N2)cc1 [LEVAMISOLE] | > 30 | > 30 | > 30 | > 30 |  |  |  |  |  | 
6 | COc1ccc(CC(C)(C)NC[C@H](O)c2cc(O)cc3c2OCC(=O)N3)cc1 [OLODATEROL] | > 30 | > 30 | > 30 | > 30 |  |  |  |  |  | 
7 | CC(C)C[C@H]1C(=O)N2CCC[C@H]2[C@]2(O)O[C@](NC(=O)[C@@H]3C=C4c5cccc6[nH]c(Br)c(c56)C[C@H]4N(C)C3)(C(C)C)C(=O)N12 [BROMOCRIPTINE] |  | > 30 | > 30 | > 30 | > 30 |  | > 30 | 1.69 | > 30 | 
8 | C[C@@H](O)[C@H]1C(=O)N2C(C(=O)O)=C(S[C@@H]3CN[C@H](C(=O)N(C)C)C3)[C@H](C)[C@H]12 [MEROPENEM] |  | > 300 | > 300 | > 300 |  |  |  |  |  | 
9 | N[C@@H]1[C@H]2CN(c3nc4c(cc3F)c(=O)c(C(=O)O)cn4-c3ccc(F)cc3F)C[C@@H]12 [TROVAFLOXACIN] | > 30 |  | > 30 | > 30 |  |  |  |  |  | 
10 | c1cnc(N2CCN(Cc3ccc4c(c3)OCO4)CC2)nc1 [PIRIBEDIL] | > 30 | > 30 | > 30 | > 30 |  |  |  |  |  | 
11 | CCCN1C[C@H](CSC)C[C@@H]2c3cccc4[nH]cc(c34)C[C@H]21 [PERGOLIDE] | > 30 | > 30 |  | > 30 | > 30 | > 30 | > 30 | 3.77 | > 30 | 
12 | Cc1c(C(=O)NN2CCCCC2)nn(-c2ccc(Cl)cc2Cl)c1-c1ccc(Cl)cc1 [RIMONABANT] | > 30 | > 30 | > 30 | > 30 | > 30 | > 30 | > 30 | 10.9 | > 30 | 
13 | CN(C)CCC=C1c2ccccc2C(C)(C)c2ccccc21 | > 30 | > 30 | > 30 | > 30 |  |  |  |  |  | 
14 | O=C(OCC(O)CO)c1ccccc1Nc1ccnc2cc(Cl)ccc12 (stereo not drawn) [GLAFENINE] | > 10 | 13 | > 30 |  |  |  |  |  |  | > 30
15 | C[C@H]1CNCCc2ccc(Cl)cc21 [LORCASERIN] | > 30 | > 30 | > 30 | > 30 |  |  |  |  |  | 
